Measured values taken from patent publication US4118561A, “7-(Substituted)-7H-pyrrolo[3,2-f]quinazoline-1,3-diamines” (priority 1977, dated 1978).
Converted amounts (≈) assume the structure as drawn. Like-named read-outs stand apart in the source and are kept apart here.

Experiments:
S. paratyphi 11737 = assay: In vitro antibacterial activity (MIC), S. paratyphi 11737; format: cell-based; conditions: Salmonella enterica, 18 h
S. aureus 53-180 = assay: In vitro antibacterial activity (MIC), S. aureus 53-180; conditions: Staphylococcus aureus, 53180, 18 h
[1] = Antimalarial blood schizonticidal test in mice; format: in vivo, Plasmodium berghei (infected ICR/HA Swiss mice); set-up: ΔMST (increase in mean survival time): unit: days; conditions: mouse, in vivo, sc, single dose, infected mice; highest dose with no deaths for any reason; read-out: Highest Non-Lethal Dose
Excerpt: (§1) In addition, the invention provides compounds which have antimalarial activity in vivo as evidenced by a standard blood schizonticidal test in mice infected with Plasmodium berghei KBG 173.
(§2) Utilizing young ICR/HA Swiss mice and a standard inoculum of Plasmodium berghei KBG 173, it is possible to produce a uniform disease fatal to 100% of untreated animals within 6 to 8 days with a mean survival time of 6.2 days. Test animals weigh from 18 to 22 grams but weight variations in any given experimental or control group are confined to 2-3 grams. All animals in any given test are approximately of the same age. Animals on test are housed in metal-topped plastic cages, given a standard laboratory diet and water ad libitum.
(§3) Test animals receive an intraperitoneal injection of 0.5 ml. of 1:100 dilution of heparinized heart's blood with a minimum of 90% parasitized cells (4 × 10^7 cells), drawn from donor mice infected one week earlier with Plasmodium berghei. The donor strain is maintained by weekly passages in separate groups of mice inoculated with a 0.5 ml. of 1:500 dilution of heparinized heart's blood.
(§4) Test compounds are administered after dissolution or suspension in peanut oil. A single dose is given subcutaneously 72 hours after the mice are infected with Plasmodium berghei. At this time a 10-15 percent parasitemia has developed; the disease is well established but has not produced sufficient debility to alter the response of the host to toxic effects of the drug on test. Since treatment is withheld for three days to permit the infection to become well established and death occurs in untreated controls within 6-8 days, it is felt that this system presents a candidate compound with the maximum challenge. In order to check factors such as changes in the infectivity of Plasmodium berghei or in the susceptibility of the host or to detect technical errors, a group of infected animals treated with pyrimethamine at dose levels producing definite increases in survival time is included in a positive control in every experiment.
(§5) In each experiment test compounds are administered in graded dosages. […] However, if an active drug is toxic for the host, its toxicity may become a limiting factor; continued increases in dose levels also increase the toxic effects and may result in the diminution of survival times. Deaths prior to the sixth day, when untreated controls begin to die, are regarded as nonparasitic and become the basis for toxicity evaluations. […] In calculating mean survival time, toxic deaths and 60-day survivors are not included.
(§6) Compounds are considered active which produce a cure in at least one test animal or which produce significant increases in mean survival times of the treated animals as compared with the mean survival times of untreated controls, provided that no drug related deaths (toxicity) are noted at the active dose.

[2] = tested on: Plasmodium berghei KBG 173; assay: Antimalarial blood schizonticidal test in mice; format: in vivo, Plasmodium berghei (infected ICR/HA Swiss mice); set-up: ΔMST (increase in mean survival time): unit: days; conditions: s.c.; for minimal effective dose: read-out: Min. Curing Dose; for Cure/Treat at Min. Curing Dose: at the Min. Curing Dose
Excerpt: as §1, §2, §3, §4, §5, §6

E. coli 9637 = assay: In vitro antibacterial activity (MIC), E. coli 9637; conditions: Escherichia coli, 9637, 18 h
K. pneumoniae 10031 = assay: In vitro antibacterial activity (MIC), K. pneumoniae 10031; conditions: Klebsiella pneumoniae, 10031, 18 h
S. aureus Smith = assay: In vitro antibacterial activity (MIC), S. aureus Smith; conditions: Staphylococcus aureus, 18 h
N. catarrhalis 8193 = assay: In vitro antibacterial activity (MIC), N. catarrhalis 8193; conditions: 18 h
P. vulgaris 6896 = assay: In vitro antibacterial activity (MIC), P. vulgaris 6896; conditions: Proteus vulgaris, 6896, 18 h
[3] = Plasmodium berghei, sc, 1440 h, single dose, 60-day survivors

| SMILES | MIC (S. paratyphi 11737) | MIC (S. aureus 53-180) | MTD [1] | ED100 ([2]; Plasmodium berghei, sc, 1440 h, single dose, 60-day survivors, read-out: Lowest Dose Curing All Mice) | minimal effective dose [2, 3] | Cure/Treat at Min. Curing Dose ([2]; 60-day survivors) | ΔMST (increase in mean survival time) ([2]; dose 160 mg. per kg.) | MIC (E. coli 9637) | MIC (K. pneumoniae 10031) | MIC (S. aureus Smith) | MIC (N. catarrhalis 8193) | MIC (P. vulgaris 6896) | minimal effective dose ([2]; Plasmodium berghei, sc, 336 h, single dose, alive on day 14 considered cured, no 60-day data) | Cure/Treat at Min. Curing Dose ([2]; alive on day 14 considered cured) | ΔMST (increase in mean survival time) ([2]; dose 20 mg. per kg.) | ΔMST (increase in mean survival time) ([2]; dose 320 mg. per kg.) | ΔMST (increase in mean survival time) ([2]; dose 40 mg. per kg.) |
| --- | --- | --- | --- | --- | --- | --- | --- | --- | --- | --- | --- | --- | --- | --- | --- | --- | --- |
| Cc1cc(-n2ccc3c4c(N)nc(N)nc4ccc32)ccc1[N+](=O)[O-] [Example 80] | > 250 µg/mL | 7.81 µg/mL (≈ 23.4 µM) | 640 mg/kg | 640 mg/kg | 640 mg/kg | 5/5 | 13.9 | > 250 µg/mL | 0.976 µg/mL (≈ 2.92 µM) | 62.5 µg/mL (≈ 187 µM) | 0.0152 µg/mL (≈ 0.0455 µM) | > 250 µg/mL |  |  |  |  |  |
| Nc1nc(N)c2c(ccc3c2ccn3-c2ccc([N+](=O)[O-])cn2)n1 [Example 82] | > 250 µg/mL | 3.9 µg/mL (≈ 12.1 µM) |  |  |  |  |  | > 250 µg/mL | 31.3 µg/mL (≈ 97.4 µM) | 0.976 µg/mL (≈ 3.04 µM) | 0.031 µg/mL (≈ 0.0965 µM) | > 250 µg/mL | 160 mg/kg | 1/5 |  |  |  |
| CC(=O)c1ccc(-n2ccc3c4c(N)nc(N)nc4ccc32)cc1 [Example 71] | 7.81 µg/mL (≈ 24.6 µM) | 0.488 µg/mL (≈ 1.54 µM) |  |  | 40 mg/kg | 1/5 |  | 0.976 µg/mL (≈ 3.08 µM) | 0.122 µg/mL (≈ 0.384 µM) | 1.95 µg/mL (≈ 6.14 µM) | 0.031 µg/mL (≈ 0.0977 µM) | 15.6 µg/mL (≈ 49.2 µM) |  |  | 8.8 |  |  |
| CC(C)=CCn1ccc2c3c(N)nc(N)nc3ccc21 [Example 55] | 7.81 µg/mL (≈ 29.2 µM) | 0.976 µg/mL (≈ 3.65 µM) |  |  | 640 mg/kg | 3/5 |  | 3.9 µg/mL (≈ 14.6 µM) | 0.488 µg/mL (≈ 1.83 µM) | 1.95 µg/mL (≈ 7.29 µM) | 0.0038 µg/mL (≈ 0.0142 µM) | 7.81 µg/mL (≈ 29.2 µM) |  |  |  | 9.3 |  |
| Cc1ccccc1Cn1ccc2c3c(N)nc(N)nc3ccc21 [Example 19] | 3.9 µg/mL (≈ 12.9 µM) | 0.488 µg/mL (≈ 1.61 µM) |  |  | 40 mg/kg | 3/5 |  | 0.976 µg/mL (≈ 3.22 µM) | 0.122 µg/mL (≈ 0.402 µM) | 0.488 µg/mL (≈ 1.61 µM) | 0.0152 µg/mL (≈ 0.0501 µM) | 7.81 µg/mL (≈ 25.7 µM) |  |  |  |  | 8.4 |
| Nc1nc(N)c2c(ccc3c2ccn3CC2CCCCC2)n1 [Example 54] | 7.81 µg/mL (≈ 26.4 µM) | 3.9 µg/mL (≈ 13.2 µM) |  |  |  |  |  | 1.95 µg/mL (≈ 6.6 µM) | 0.488 µg/mL (≈ 1.65 µM) | 7.81 µg/mL (≈ 26.4 µM) | 0.0152 µg/mL (≈ 0.0515 µM) | 3.9 µg/mL (≈ 13.2 µM) |  |  |  |  | 8.5 |
| Nc1nc(N)c2c(ccc3c2ccn3-c2ccccc2[N+](=O)[O-])n1 [Example 76] | 1.95 µg/mL (≈ 6.09 µM) | 0.244 µg/mL (≈ 0.762 µM) |  |  | 40 mg/kg | 4/5 |  | 0.976 µg/mL (≈ 3.05 µM) | 0.244 µg/mL (≈ 0.762 µM) | 0.244 µg/mL (≈ 0.762 µM) | 0.031 µg/mL (≈ 0.0968 µM) | 3.9 µg/mL (≈ 12.2 µM) |  |  |  |  |  |
| CC(=O)c1ccccc1-n1ccc2c3c(N)nc(N)nc3ccc21 [Example 70] | 0.488 µg/mL (≈ 1.54 µM) | 0.031 µg/mL (≈ 0.0977 µM) |  |  | 40 mg/kg | 1/5 |  | 0.244 µg/mL (≈ 0.769 µM) | 0.0152 µg/mL (≈ 0.0479 µM) | 0.061 µg/mL (≈ 0.192 µM) | 0.0076 µg/mL (≈ 0.0239 µM) | 0.976 µg/mL (≈ 3.08 µM) |  |  |  |  | 9.2 |
| Cc1cc2c(ccc3nc(N)nc(N)c32)[nH]1 [Example 98, 8-Methyl-7H-pyrrolo[3,2-f]quinazoline-1,3-diamine] | 15.6 µg/mL (≈ 73.2 µM) | 31.3 µg/mL (≈ 147 µM) |  |  | 160 mg/kg | 3/5 | 13.9 | 3.9 µg/mL (≈ 18.3 µM) | 3.9 µg/mL (≈ 18.3 µM) | 31.3 µg/mL (≈ 147 µM) | 1.95 µg/mL (≈ 9.14 µM) | 15.6 µg/mL (≈ 73.2 µM) |  |  |  |  |  |
